Test results published in ChEMBL document CHEMBL2412951, “Resonance light scattering technique as a new tool to determine the binding mode of anticancer drug oridonin to DNA” (Eur J Med Chem, 2013).
The source made the active and inactive calls. The calls are words filed in the database; no cut-off is given here.

Legend:
Assay type in all cases: nucleic-acid assay
Conditions in all cases: Bos taurus
DNA [1] = assay: Binding affinity to calf thymus DNA by Stern-Volmer plot analysis
DNA [2] = assay: Binding affinity to calf thymus DNA at 10^-5 M by atomic force microscopic analysis
DNA [3] = assay: Binding affinity to calf thymus DNA at 5 X 10^-5 M by fluorescence polarization assay
DNA [4] = assay: Binding affinity to calf thymus DNA at 1 X 10^-5 M by spectrofluorimetric analysis
Calf thymus DNA [5] = assay: Binding affinity to calf thymus dsDNA at 1 X 10^-5 to 2 x 10^-5 M after 10 mins by UV/vis spectrophotometric analysis
Calf thymus DNA [6] = assay: Binding affinity to calf thymus double helix DNA at 90 uM by resonance light scattering analysis in presence of 0.005 to 0.2 M NaCl
DNA [7] = assay: Binding affinity to calf thymus DNA at 1 ug/ml at pH 2.5 by SEM analysis
DNA [8] = assay: Binding affinity to calf thymus DNA at 90 uM at pH 2 to 8.5 by resonance light scattering analysis
DNA [9] = assay: Binding affinity to calf thymus DNA at 10 to 160 uM by resonance light scattering analysis

- KSV (DNA [1]): 1.79 ×10⁵ /M
- Activity (DNA [2]): Active
- Activity (DNA [3]): Active
- Activity (DNA [4]): Active
- Activity (Calf thymus DNA [5]): Active
- Activity (Calf thymus DNA [6]): Active
- Activity (DNA [7]): Active
- Activity (DNA [8]): Active
- Activity (DNA [9]): Active
SMILES: C=C1C(=O)[C@]23[C@H](O)[C@H]1CC[C@H]2[C@@]12CO[C@]3(O)[C@@H](O)[C@@H]1C(C)(C)CC[C@@H]2O
